Results taken from ChEMBL document CHEMBL1212760, “First isolation of the blaOXA-23 carbapenemase gene from an environmental Acinetobacter baumannii isolate” (2010).
Converted amounts (≈) assume the structure as drawn.

Tested on: Acinetobacter baumannii
Experiment: Antimicrobial activity against Acinetobacter baumannii B9 containing carbapenemase blaOXA-23 gene assessed as growth inhibition by Etest method
Format: functional

Molecule	MIC
NCC[C@H](O)C(=O)N[C@@H]1C[C@H](N)[C@@H](O[C@H]2O[C@H](CN)[C@@H](O)[C@H](O)[C@H]2O)[C@H](O)[C@H]1O[C@H]1O[C@H](CO)[C@@H](O)[C@H](N)[C@H]1O [AMIKACIN]	8 µg/mL (≈ 13.7 µM)
CC1(C)S[C@@H]2[C@H](NC(=O)[C@H](N)c3ccc(O)cc3)C(=O)N2[C@H]1C(=O)O [AMOXICILLIN]	> 256 µg/mL
C[C@H]1[C@H](NC(=O)/C(=N\OC(C)(C)C(=O)O)c2csc(N)n2)C(=O)N1S(=O)(=O)O [AZTREONAM]	32 µg/mL (≈ 73.5 µM)
CO/N=C(\C(=O)N[C@@H]1C(=O)N2C(C(=O)[O-])=C(C[N+]3(C)CCCC3)CS[C@H]12)c1csc(N)n1 [CEFEPIME]	> 256 µg/mL
CO/N=C(\C(=O)N[C@@H]1C(=O)N2C(C(=O)O)=C(COC(C)=O)CS[C@H]12)c1csc(N)n1 [CEFOTAXIME]	> 256 µg/mL
CO/N=C(\C(=O)N[C@@H]1C(=O)N2C(C(=O)[O-])=C(C[n+]3cccc4c3CCC4)CS[C@H]12)c1csc(N)n1 [CEFPIROME]	> 256 µg/mL
CC(C)(O/N=C(\C(=O)N[C@@H]1C(=O)N2C(C(=O)[O-])=C(C[n+]3ccccc3)CS[C@H]12)c1csc(N)n1)C(=O)O [CEFTAZIDIME]	> 256 µg/mL
CO/N=C(\C(=O)N[C@@H]1C(=O)N2C(C(=O)O)=C(COC(N)=O)CS[C@H]12)c1ccco1 [CEFUROXIME]	> 256 µg/mL
CC(=O)OCC1=C(C(=O)O)N2C(=O)[C@@H](NC(=O)Cc3cccs3)[C@H]2SC1 [CEPHALOTHIN]	> 256 µg/mL
O=C(O)c1cn(C2CC2)c2cc(N3CCNCC3)c(F)cc2c1=O [CIPROFLOXACIN]	> 32 µg/mL
C[C@@H](O)[C@H]1C(=O)N2C(C(=O)O)=C(S[C@@H]3CN[C@H](C(=O)Nc4cccc(C(=O)O)c4)C3)[C@H](C)[C@H]12 [ERTAPENEM]	> 32 µg/mL
C[C@@H](O)[C@H]1C(=O)N2C(C(=O)O)=C(SCCNC=N)C[C@H]12 [IMIPENEM ANHYDROUS]	48 µg/mL (≈ 160 µM)
C[C@@H](O)[C@H]1C(=O)N2C(C(=O)O)=C(S[C@@H]3CN[C@H](C(=O)N(C)C)C3)[C@H](C)[C@H]12 [MEROPENEM]	24 µg/mL (≈ 62.6 µM)
CO[C@@]1(NC(=O)C(C(=O)O)c2ccc(O)cc2)C(=O)N2C(C(=O)O)=C(CSc3nnnn3C)CO[C@@H]21 (stereo partly specified) [MOXALACTAM]	> 256 µg/mL
CCn1cc(C(=O)O)c(=O)c2ccc(C)nc21 [NALIDIXIC ACID]	> 256 µg/mL
CCN[C@@H]1C[C@H](N)[C@@H](O[C@H]2OC(CN)=CC[C@H]2N)[C@H](O)[C@H]1O[C@H]1OC[C@](C)(O)[C@H](NC)[C@H]1O [NETILMICIN]	8 µg/mL (≈ 16.8 µM)
CC1COc2c(N3CCN(C)CC3)c(F)cc3c(=O)c(C(=O)O)cn1c23 (stereo unspecified) [OFLOXACIN]	> 32 µg/mL
CCn1cc(C(=O)O)c(=O)c2cc(F)c(N3CCN(C)CC3)cc21 [PEFLOXACIN]	> 256 µg/mL
CCN1CCN(C(=O)N[C@@H](C(=O)N[C@@H]2C(=O)N3[C@@H]2SC(C)(C)[C@@H]3C(=O)O)c2ccccc2)C(=O)C1=O [PIPERACILLIN]	> 256 µg/mL
CC1(C)S[C@@H]2[C@H](NC(=O)[C@H](C(=O)O)c3ccsc3)C(=O)N2[C@H]1C(=O)O [TICARCILLIN]	> 256 µg/mL
GENTAMICIN	8 µg/mL
